Test results reported in ChEMBL document CHEMBL1909046, “DrugMatrix in vitro pharmacology data”.

Experiments:
[1] = target: T1, Alpha-1A adrenergic receptor (Rattus norvegicus, UniProt P43140); experiment: DRUGMATRIX: Alpha-1A adrenergic receptor radioligand binding (ligand: prazosin); assay type: cell membranes, Wistar, Submaxillary gland, Membrane; settings: Not Active = under 50% inhibition at 10 µM
T1 sequence (P43140 whole entry): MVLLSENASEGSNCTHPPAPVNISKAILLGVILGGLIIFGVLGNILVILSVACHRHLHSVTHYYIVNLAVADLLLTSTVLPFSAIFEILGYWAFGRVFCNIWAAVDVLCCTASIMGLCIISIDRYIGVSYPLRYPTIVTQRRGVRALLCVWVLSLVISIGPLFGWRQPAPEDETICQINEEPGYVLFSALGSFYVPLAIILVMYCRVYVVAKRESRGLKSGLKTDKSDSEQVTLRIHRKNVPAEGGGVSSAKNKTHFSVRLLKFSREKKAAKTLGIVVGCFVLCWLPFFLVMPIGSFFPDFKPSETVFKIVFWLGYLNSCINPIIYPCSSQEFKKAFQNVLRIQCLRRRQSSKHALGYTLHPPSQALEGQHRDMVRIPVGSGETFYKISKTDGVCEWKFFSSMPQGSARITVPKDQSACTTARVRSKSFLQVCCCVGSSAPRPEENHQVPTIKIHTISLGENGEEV

[2] = target: Aldo-keto reductase family 1 member B1 (Rattus norvegicus, UniProt P07943); assay type: tissue-based, Lens of camera-type eye;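 further: inhibition of aldose reductase enzyme activity, measured with DL-glyceraldehyde as the substrate; in other assays of this panel Not Active means under 50% inhibition at 10 µM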
[3] = target: T2, 5-hydroxytryptamine receptor 2C (Homo sapiens, UniProt P28335); experiment: DRUGMATRIX: Serotonin (5-Hydroxytryptamine) 5-HT2C radioligand binding (ligand: [3H] Mesulergine); assay type: cell membranes, CHO-K1, Membrane; settings: cho-k1; Not Active = under 50% inhibition at 10 µM
T2 sequence (P28335 whole entry): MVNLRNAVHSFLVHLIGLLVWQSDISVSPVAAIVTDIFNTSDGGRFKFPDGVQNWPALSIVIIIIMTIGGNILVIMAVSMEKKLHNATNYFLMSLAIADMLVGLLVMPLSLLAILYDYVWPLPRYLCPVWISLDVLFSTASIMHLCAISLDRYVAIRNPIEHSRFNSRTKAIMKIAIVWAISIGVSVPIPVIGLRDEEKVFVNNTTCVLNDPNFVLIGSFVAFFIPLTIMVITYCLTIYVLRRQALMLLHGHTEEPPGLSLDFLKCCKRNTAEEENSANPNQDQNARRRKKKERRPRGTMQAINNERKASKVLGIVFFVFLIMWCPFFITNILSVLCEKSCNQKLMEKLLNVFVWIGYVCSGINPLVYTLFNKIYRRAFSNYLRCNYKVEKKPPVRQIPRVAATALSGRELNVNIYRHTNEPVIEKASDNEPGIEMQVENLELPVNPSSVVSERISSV

Substance-K receptor = target: T3, Substance-K receptor (Homo sapiens, UniProt P21452); assay type: cell membranes, CHO, Membrane; further: in other assays of this panel Not Active means under 50% inhibition at 10 µM
T3 sequence (P21452 whole entry): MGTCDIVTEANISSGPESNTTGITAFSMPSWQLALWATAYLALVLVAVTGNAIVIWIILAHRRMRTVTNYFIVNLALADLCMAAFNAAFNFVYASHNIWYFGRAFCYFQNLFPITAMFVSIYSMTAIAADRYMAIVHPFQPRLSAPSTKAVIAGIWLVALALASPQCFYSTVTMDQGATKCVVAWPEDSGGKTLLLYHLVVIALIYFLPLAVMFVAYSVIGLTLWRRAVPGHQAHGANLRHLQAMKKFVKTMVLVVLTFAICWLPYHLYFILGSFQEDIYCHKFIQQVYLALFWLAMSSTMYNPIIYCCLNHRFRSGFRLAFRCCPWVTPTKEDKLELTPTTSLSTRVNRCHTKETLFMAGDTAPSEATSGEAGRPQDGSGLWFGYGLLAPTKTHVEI

[4] = DRUGMATRIX: GABAA, Chloride Channel, TBOB radioligand binding (ligand: [3H] TBOB); assay type: cell membranes, Rattus norvegicus, Wistar, Cerebral cortex, Membrane; settings: Not Active = under 50% inhibition at 10 µM
[5] = DRUGMATRIX: Glutamate, NMDA, Agonism radioligand binding (ligand: [3H] CGP-39653); assay type: cell membranes, Rattus norvegicus, Wistar, Cerebral cortex, Membrane; settings: Not Active = under 50% inhibition at 10 µM
[6] = DRUGMATRIX: Imidazoline I2, Central radioligand binding (ligand: [3H] Idazoxan); assay type: cell membranes, Rattus norvegicus, Wistar, Cerebral cortex, Membrane; settings: Not Active = under 50% inhibition at 10 µM
Melanocortin receptor 4 = Melanocortin receptor 4 (Homo sapiens, UniProt P32245); assay type: cell membranes, Membrane; settings: hek293; further: in other assays of this panel Not Active means under 50% inhibition at 10 µM
Melanocortin receptor 4, sequence (P32245 whole entry): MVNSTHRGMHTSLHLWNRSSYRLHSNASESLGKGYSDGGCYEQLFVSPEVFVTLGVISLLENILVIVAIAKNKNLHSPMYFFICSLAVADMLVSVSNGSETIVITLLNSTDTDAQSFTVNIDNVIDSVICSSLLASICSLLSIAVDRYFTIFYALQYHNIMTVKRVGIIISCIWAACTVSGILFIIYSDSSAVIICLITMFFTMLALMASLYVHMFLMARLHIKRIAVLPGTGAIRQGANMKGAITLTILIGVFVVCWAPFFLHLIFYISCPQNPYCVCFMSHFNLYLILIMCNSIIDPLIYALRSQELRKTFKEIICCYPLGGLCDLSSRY

[7] = target: T4, Muscarinic acetylcholine receptor M5 (Homo sapiens, UniProt P08912); assay type: cell membranes, CHO-K1, Membrane; settings: cho-k1; further: in other assays of this panel Not Active means under 50% inhibition at 10 µM
T4 sequence (P08912 whole entry): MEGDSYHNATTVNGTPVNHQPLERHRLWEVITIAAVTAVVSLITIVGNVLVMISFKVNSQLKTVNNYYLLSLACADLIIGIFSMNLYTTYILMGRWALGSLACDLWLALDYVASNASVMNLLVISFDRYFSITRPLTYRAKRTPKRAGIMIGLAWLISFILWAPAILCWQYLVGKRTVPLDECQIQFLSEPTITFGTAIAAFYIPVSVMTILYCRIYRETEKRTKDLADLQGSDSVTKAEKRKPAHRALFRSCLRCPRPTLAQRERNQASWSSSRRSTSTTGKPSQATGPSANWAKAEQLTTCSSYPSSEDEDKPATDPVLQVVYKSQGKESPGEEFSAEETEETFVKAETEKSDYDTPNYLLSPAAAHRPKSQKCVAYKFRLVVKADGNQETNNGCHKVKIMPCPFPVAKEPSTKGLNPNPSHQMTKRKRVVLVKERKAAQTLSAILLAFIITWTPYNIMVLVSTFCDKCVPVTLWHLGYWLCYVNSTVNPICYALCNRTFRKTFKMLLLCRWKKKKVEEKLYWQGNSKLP

[8] = DRUGMATRIX: Nicotinic Acetylcholine radioligand binding (ligand: [125I] Epibatidine); assay type: cell membranes, Membrane; settings: imr-32; Not Active = under 50% inhibition at 10 µM
[9] = DRUGMATRIX: Platelet-Derived Growth Factor (PDGF) radioligand binding (ligand: [125I] PDGF); assay type: cell-based; settings: nih3t3; Not Active = under 50% inhibition at 10 µM
Adenosine receptor A1 = target: T5, Adenosine receptor A1 (Homo sapiens, UniProt P30542); assay type: cell membranes, CHO, Membrane; settings: cho
T5 sequence (P30542 whole entry): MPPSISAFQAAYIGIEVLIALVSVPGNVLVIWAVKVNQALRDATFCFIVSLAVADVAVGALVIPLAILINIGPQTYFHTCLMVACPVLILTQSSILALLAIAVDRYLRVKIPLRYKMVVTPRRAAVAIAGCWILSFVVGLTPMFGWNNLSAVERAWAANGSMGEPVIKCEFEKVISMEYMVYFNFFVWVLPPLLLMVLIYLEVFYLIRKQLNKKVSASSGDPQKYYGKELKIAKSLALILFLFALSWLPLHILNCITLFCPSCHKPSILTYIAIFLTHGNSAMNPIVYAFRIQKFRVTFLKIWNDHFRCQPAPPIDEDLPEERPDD

Row | Compound | IC50 [1] | IC50 [2] | IC50 [3] | IC50 (Substance-K receptor; cho) | IC50 [4] | Ki [4] | IC50 [5] | Ki [5] | IC50 [6] | Ki [6] | IC50 (Melanocortin receptor 4) | IC50 [7] | IC50 [8] | Ki [8] | IC50 [9] | Ki [9] | IC50 (Adenosine receptor A1) | IC50 (Substance-K receptor; read-out: IC50) [µM] | Ki (Substance-K receptor; read-out: Ki) [µM]
1 | Nc1nnc(-c2cccc(Cl)c2Cl)c(N)n1 [LAMOTRIGINE] | Not Active | Not Active | Not Active | Not Active | Not Active | Not Active | Not Active | Not Active | Not Active | Not Active | Not Active | Not Active | Not Active | Not Active | Not Active | Not Active | Not Active |  | 
2 | NC(=O)c1ccccc1O [SALICYLAMIDE] | Not Active | Not Active | Not Active | Not Active | Not Active | Not Active | Not Active | Not Active | Not Active | Not Active | Not Active | Not Active | Not Active | Not Active | Not Active | Not Active | Not Active |  | 
3 | C=CC[C@@H]1/C=C(\C)C[C@H](C)C[C@H](OC)[C@H]2O[C@@](O)(C(=O)C(=O)N3CCCC[C@H]3C(=O)O[C@H](/C(C)=C/[C@@H]3CC[C@@H](O)[C@H](OC)C3)[C@H](C)[C@@H](O)CC1=O)[C@H](C)C[C@@H]2OC [TACROLIMUS ANHYDROUS] | Not Active | Not Active | Not Active | Not Active | Not Active | Not Active | Not Active | Not Active | Not Active | Not Active | Not Active | Not Active | Not Active | Not Active | Not Active | Not Active | Not Active |  | 
4 | c1ccc2[nH]c(-c3cscn3)nc2c1 [THIABENDAZOLE] | Not Active | Not Active | Not Active | Not Active | Not Active | Not Active | Not Active | Not Active | Not Active | Not Active | Not Active | Not Active | Not Active | Not Active | Not Active | Not Active | Not Active |  | 
5 | COc1ccc(C(CN(C)C)C2(O)CCCCC2)cc1 (configuration not stated) [VENLAFAXINE] | Not Active | Not Active | Not Active | Not Active | Not Active | Not Active | Not Active | Not Active | Not Active | Not Active | Not Active | Not Active | Not Active | Not Active | Not Active | Not Active | Not Active |  | 
6 | CC(C)(C)NC(=O)[C@@H]1CN(Cc2cccnc2)CCN1C[C@@H](O)C[C@@H](Cc1ccccc1)C(=O)N[C@H]1c2ccccc2C[C@H]1O.O | Not Active | Not Active | Not Active |  | Not Active | Not Active | Not Active | Not Active | Not Active | Not Active | Not Active | Not Active | Not Active | Not Active | Not Active | Not Active | Not Active | 5.1 | 1.7
7 | Clc1ccc(C(c2ccccc2Cl)C(Cl)Cl)cc1 (configuration not stated) [MITOTANE] | Not Active | Not Active | Not Active | Not Active | Not Active | Not Active | Not Active | Not Active | Not Active | Not Active | Not Active | Not Active | Not Active | Not Active | Not Active | Not Active | Not Active |  | 
8 | Oc1c(I)cc(I)c2cccnc12 [IODOQUINOL] | Not Active | Not Active | Not Active | Not Active | Not Active | Not Active | Not Active | Not Active | Not Active | Not Active | Not Active | Not Active | Not Active | Not Active | Not Active | Not Active | Not Active |  | 
